Measurements: patent US11395847B2, “Acylated GLP-1/GLP-2 dual agonists” (Zealand Pharma A/S, priority 2016, dated 2022)
Like-named read-outs stand apart in the source and are kept apart here. *1 amine or outer side, *2 acyl side, *3 side chain or, on linkers, in order; H or OH if unused. Where a SMILES comes first, the peptide text is derived from it. Side-chain parts run from the residue outwards. [ ]: non-standard residue; d: D form. The star is where a group is joined. C20 diacid = O=C(O)CCCCCCCCCCCCCCCCCCC(=O)*; γGlu = O=C(O)[C@H](CCC(=O)[*:2])N[*:1]; AEEA = NCCOCCOCC(=O)O; Aib = CC(C)(N)C(=O)O

What was measured:
human GLP-2 receptor = molecular target: T1, human GLP-2 receptor (Homo sapiens, UniProt O95838, D470N); assay: GLP-2 receptor potency assay (cAMP ALPHASCREEN, HEK293 cells stably expressing GLP-2 R); type: cell-based
T1 construct: expressed in transfected cells
T1 sequence (O95838 1-553 D470N): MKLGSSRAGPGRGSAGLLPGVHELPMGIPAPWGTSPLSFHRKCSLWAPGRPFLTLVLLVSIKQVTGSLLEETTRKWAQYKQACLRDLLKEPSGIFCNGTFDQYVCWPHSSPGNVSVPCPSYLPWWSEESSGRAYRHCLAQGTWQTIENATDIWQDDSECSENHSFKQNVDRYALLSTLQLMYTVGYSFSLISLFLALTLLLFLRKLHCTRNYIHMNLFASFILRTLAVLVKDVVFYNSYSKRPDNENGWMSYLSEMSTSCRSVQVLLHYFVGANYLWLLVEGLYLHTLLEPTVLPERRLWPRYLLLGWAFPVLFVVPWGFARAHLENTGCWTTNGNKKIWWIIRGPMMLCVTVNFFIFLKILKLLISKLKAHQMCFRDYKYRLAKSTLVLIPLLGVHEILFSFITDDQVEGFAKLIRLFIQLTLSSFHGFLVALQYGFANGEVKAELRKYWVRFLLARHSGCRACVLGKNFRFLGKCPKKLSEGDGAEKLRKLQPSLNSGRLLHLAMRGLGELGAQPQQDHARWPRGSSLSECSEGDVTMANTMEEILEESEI
Source text: One useful in vitro assay for measuring GLP-1 and GLP-2 receptor activity is quantitation of cAMP, i.e. 3′-5′-cyclic adenosine monophosphate, which is a second messenger essential in many biological processes, and one of the most ubiquitous mechanisms for regulating cellular functions.
For subcloning into a mammalian expression vector, primers for subcloning were obtained from DNA-Technology, Risskov, Denmark. The 5′ and 3′ primers used for the PCR reaction include terminal restriction sites for cloning and the context of the 5′ primer is modified to a Kozak consensus without changing the sequence of the product encoded by the ORF. […] The generated PCR product was purified using GFX PCR and Gel band purification kit, digested with restriction enzymes and cloned into the mammalian expression vector using Rapid DNA Ligation Kit. Ligation reaction was transformed to XL10 Gold Ultracompetent cells and colonies were picked for DNA production using ENDOFREE® Plasmid maxi kit. Subsequent sequence analysis was conducted by MWG Eurofins, Germany.
HEK293 cells were transfected using the LIPOFECTAMINE® PLUS transfection method. The day before transfection, HEK293 cells were seeded in two T75 flasks at a density of 2×10^6 cells/T75 flask in cell culturing medium without antibiotics. On the day of transfection, cells were washed with 1× DPBS and medium was replaced with OPTI-MEM© to a volume of 5 mL/T75 flask before addition of LIPOFECTAMINE®-plasmid complexes were added gently and drop wise to the cells in T75 flasks and replaced with growth medium after 3 hours and again to growth medium supplemented with 500 μg/mL G418 after 24 hours. Following 4 weeks in G418 selection, clones were picked and tested in a functional GLP-2 receptor potency assay as described below.
The cAMP ALPHASCREEN® assay from Perkin Elmer was used to quantitate the cAMP response to activation of the GLP1 and GLP2 receptor, respectively. […] Data from test compounds eliciting an increase in the intracellular level of cAMP were normalized relative to the positive and negative control (vehicle) to calculate the EC50 and maximal response from the concentration response curve.

[1] = Solubility assessment (turbidity absorbance at 325 nm); type: physicochemical
Description: A stock solution of the test peptide (2 mg/ml; determined from the weighed amount of peptide) in demineralized water adjusted to pH 2.5 with HCl was prepared, and aliquots were diluted 1:1 in 100 mM acetate buffer (pH 4.0 and pH 5.0), 100 mM histidine buffer (pH 6.0 and pH 7.0) and 100 mM phosphate buffer (pH 6.0, pH 7.0 and pH 7.5), respectively, and loaded in a standard flat-bottom, non-sterile 96-well UV Microplate. The absorbance of samples (single samples, n=1) at 280 and 325 nm was measured in an absorbance-based plate reader, which was preheated to ambient temperature (typically 25° C.).

[2] = Chemical stability (RP-HPLC normalized purity after incubation at 40° C.); type: physicochemical; settings: pH 7, 40° C., 14-day incubation, 0.2 mg/ml, normalized purity (area-%)
Summary of the method: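 Peptide at 0.2 mg/ml final in water adjusted to pH 6, 7, 7.5 or 9, incubated at 40° C for 14 days. Purity measured as main-peak area-% by C18 RP-HPLC (acetonitrile/TFA/water gradient, UV 220 nm) and normalized to T=0 set at 100 for each pH.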

[3] = cAMP response, HEK293 cells expressing human GLP-2 R, read-out: EC50 GLP-2

## CC[C@H](C)[C@H](NC(=O)[C@H](Cc1ccccc1)NC(=O)[C@H](CC(=O)O)NC(=O)[C@H](CCCNC(=N)N)NC(=O)[C@H](C)NC(=O)[C@H](C)NC(=O)[C@H](CCC(=O)O)NC(=O)[C@H](CCCCNC(=O)CC[C@H](NC(=O)CCCCCCCCCCCCCCCCC(=O)O)C(=O)O)NC(=O)[C@H](CC(=O)O)NC(=O)[C@H](CC(C)C)NC(=O)[C@@H](NC(=O)[C@@H](NC(=O)[C@H](C)NC(=O)[C@H](CC(C)C)NC(=O)[C@H](CCC(=O)O)NC(=O)[C@H](CO)NC(=O)[C@H](CO)NC(=O)[C@H](Cc1ccccc1)NC(=O)[C@@H](NC(=O)CNC(=O)[C@H](CCC(=O)O)NC(=O)C(C)(C)NC(=O)[C@@H](N)Cc1c[nH]cn1)[C@@H](C)O)[C@@H](C)O)[C@@H](C)CC)C(=O)N[C@@H](C)C(=O)N[C@@H](Cc1c[nH]c2ccccc12)C(=O)N[C@@H](CC(C)C)C(=O)N[C@H](C(=O)N[C@@H](CCC(=O)O)C(=O)N[C@@H](Cc1c[nH]cn1)C(=O)N[C@@H](CCCCN)C(=O)N[C@H](C(=O)N[C@H](C(=O)N[C@@H](CC(=O)O)C(=O)O)[C@@H](C)O)[C@@H](C)CC)[C@@H](C)CC [Compound 1] (HELM PEPTIDE1{H.[Aib].E.G.T.F.S.S.E.L.A.T.I.L.D.K.E.A.A.R.D.F.I.A.W.L.I.E.H.K.I.T.D}|PEPTIDE2{[O=C(O)CCCCCCCCCCCCCCCCC(=O)[*:2]].[gGlu]}$PEPTIDE1,PEPTIDE2,16:R3-2:R2$$$V2.0)
Human GLP-2 receptor; [3]
  EC50: 0.35 nM

## CC[C@H](C)[C@H](NC(=O)[C@H](Cc1ccccc1)NC(=O)[C@H](CC(=O)O)NC(=O)[C@H](CCCCNC(=O)COCCOCCNC(=O)COCCOCCNC(=O)CC[C@H](NC(=O)CCCCCCCCCCCCCCCCCCC(=O)O)C(=O)O)NC(=O)[C@H](C)NC(=O)[C@H](C)NC(=O)[C@H](CCC(N)=O)NC(=O)[C@H](CCC(=O)O)NC(=O)[C@H](CC(=O)O)NC(=O)[C@H](CC(C)C)NC(=O)[C@@H](NC(=O)[C@@H](NC(=O)[C@H](C)NC(=O)[C@H](CC(C)C)NC(=O)[C@H](CCC(=O)O)NC(=O)[C@H](CO)NC(=O)[C@@H](NC(=O)[C@H](Cc1ccccc1)NC(=O)[C@@H](NC(=O)CNC(=O)[C@H](CCC(=O)O)NC(=O)C(C)(C)NC(=O)[C@@H](N)Cc1c[nH]cn1)[C@@H](C)O)[C@@H](C)O)[C@@H](C)O)[C@@H](C)CC)C(=O)N[C@@H](C)C(=O)N[C@@H](Cc1c[nH]c2ccccc12)C(=O)N[C@@H](CC(C)C)C(=O)N[C@H](C(=O)N[C@@H](CCC(=O)O)C(=O)N[C@@H](Cc1c[nH]cn1)C(=O)N[C@@H](CCCCN)C(=O)N[C@H](C(=O)N[C@H](C(=O)N[C@@H](CC(=O)O)C(=O)O)[C@@H](C)O)[C@@H](C)CC)[C@@H](C)CC [Compound 46] (H-H[Aib]EGTFTSELATILDEQAAK([AEEA-AEEA-γGlu-C20 diacid])DFIAWLIEHKITD-OH)
Human GLP-2 receptor; [3]
  EC50: 0.38 nM

## CC[C@H](C)[C@H](NC(=O)[C@H](Cc1ccccc1)NC(=O)[C@H](CC(=O)O)NC(=O)[C@H](CCCNC(=N)N)NC(=O)[C@H](C)NC(=O)[C@H](C)NC(=O)[C@H](CCCCN)NC(=O)[C@H](CCCCNC(=O)CC[C@H](NC(=O)CCCCCCCCCCCCCCCCC(=O)O)C(=O)O)NC(=O)[C@H](CC(=O)O)NC(=O)[C@H](CC(C)C)NC(=O)[C@@H](NC(=O)[C@@H](NC(=O)[C@H](C)NC(=O)[C@H](CC(C)C)NC(=O)[C@H](CCC(=O)O)NC(=O)[C@H](CO)NC(=O)[C@H](CO)NC(=O)[C@H](Cc1ccccc1)NC(=O)[C@@H](NC(=O)CNC(=O)[C@H](CCC(=O)O)NC(=O)C(C)(C)NC(=O)[C@@H](N)Cc1c[nH]cn1)[C@@H](C)O)[C@@H](C)O)[C@@H](C)CC)C(=O)N[C@@H](C)C(=O)N[C@@H](Cc1c[nH]c2ccccc12)C(=O)N[C@@H](CC(C)C)C(=O)N[C@H](C(=O)N[C@@H](CCC(=O)O)C(=O)N[C@@H](Cc1c[nH]cn1)C(=O)N[C@@H](CCCCN)C(=O)N[C@H](C(=O)N[C@H](C(=O)N[C@@H](CC(=O)O)C(=O)O)[C@@H](C)O)[C@@H](C)CC)[C@@H](C)CC [Compound 4] (HELM PEPTIDE1{H.[Aib].E.G.T.F.S.S.E.L.A.T.I.L.D.K.K.A.A.R.D.F.I.A.W.L.I.E.H.K.I.T.D}|PEPTIDE2{[O=C(O)CCCCCCCCCCCCCCCCC(=O)[*:2]].[gGlu]}$PEPTIDE1,PEPTIDE2,16:R3-2:R2$$$V2.0)
Human GLP-2 receptor
  EC50: 0.087 nM

## CC[C@H](C)[C@H](NC(=O)[C@H](Cc1ccccc1)NC(=O)[C@H](CC(=O)O)NC(=O)[C@H](CCCNC(=N)N)NC(=O)[C@H](C)NC(=O)[C@H](C)NC(=O)[C@H](CCC(N)=O)NC(=O)[C@H](CCCCNC(=O)CC[C@H](NC(=O)CCCCCCCCCCCCCCCCC(=O)O)C(=O)O)NC(=O)[C@H](CC(=O)O)NC(=O)[C@H](CC(C)C)NC(=O)[C@@H](NC(=O)[C@@H](NC(=O)[C@H](C)NC(=O)[C@H](CC(C)C)NC(=O)[C@H](CCC(=O)O)NC(=O)[C@H](CO)NC(=O)[C@@H](NC(=O)[C@H](Cc1ccccc1)NC(=O)[C@H](CO)NC(=O)CNC(=O)[C@H](CCC(=O)O)NC(=O)C(C)(C)NC(=O)[C@@H](N)Cc1c[nH]cn1)[C@@H](C)O)[C@@H](C)O)[C@@H](C)CC)C(=O)N[C@@H](C)C(=O)N[C@@H](Cc1c[nH]c2ccccc12)C(=O)N[C@@H](CC(C)C)C(=O)N[C@H](C(=O)N[C@@H](Cc1c[nH]cn1)C(=O)N[C@@H](Cc1c[nH]cn1)C(=O)N[C@@H](CCCCN)C(=O)N[C@H](C(=O)N[C@H](C(=O)N[C@@H](CC(=O)O)C(=O)O)[C@@H](C)O)[C@@H](C)CC)[C@@H](C)CC [Compound 26] (HELM PEPTIDE1{H.[Aib].E.G.S.F.T.S.E.L.A.T.I.L.D.K.Q.A.A.R.D.F.I.A.W.L.I.H.H.K.I.T.D}|PEPTIDE2{[O=C(O)CCCCCCCCCCCCCCCCC(=O)[*:2]].[gGlu]}$PEPTIDE1,PEPTIDE2,16:R3-2:R2$$$V2.0)
[1]; 100 mM acetate buffer pH 4.0, ambient temperature, read-out: Solubility Acetate buffer pH 4
  solubility: ≥ 1000 µg/mL
[1]; 100 mM acetate buffer pH 5.0, ambient temperature, read-out: Solubility Acetate buffer pH 5
  solubility: < 1000 µg/mL
[1]; 100 mM histidine buffer pH 6.0, ambient temperature, read-out: Solubility Histidine buffer pH 6
  solubility: < 1000 µg/mL
[1]; 100 mM histidine buffer pH 7.0, ambient temperature, read-out: Solubility Histidine buffer pH 7
  solubility: ≥ 1000 µg/mL
[1]; 100 mM phosphate buffer pH 6.0, ambient temperature, read-out: Solubility Phosphate buffer pH 6
  solubility: < 1000 µg/mL
[1]; 100 mM phosphate buffer pH 7.0, ambient temperature, read-out: Solubility Phosphate buffer pH 7
  solubility: ≥ 1000 µg/mL
[1]; 100 mM phosphate buffer pH 7.5, ambient temperature, read-out: Solubility Phosphate buffer pH 7.5
  solubility: ≥ 1000 µg/mL
[2]
  pH 7 normalized stability: A (>90% normalised stability)
